The compounds below were run against T1, Prostaglandin G/H synthase 2 (Homo sapiens, UniProt P35354). Settings: not given.
T1 sequence (P35354 whole entry): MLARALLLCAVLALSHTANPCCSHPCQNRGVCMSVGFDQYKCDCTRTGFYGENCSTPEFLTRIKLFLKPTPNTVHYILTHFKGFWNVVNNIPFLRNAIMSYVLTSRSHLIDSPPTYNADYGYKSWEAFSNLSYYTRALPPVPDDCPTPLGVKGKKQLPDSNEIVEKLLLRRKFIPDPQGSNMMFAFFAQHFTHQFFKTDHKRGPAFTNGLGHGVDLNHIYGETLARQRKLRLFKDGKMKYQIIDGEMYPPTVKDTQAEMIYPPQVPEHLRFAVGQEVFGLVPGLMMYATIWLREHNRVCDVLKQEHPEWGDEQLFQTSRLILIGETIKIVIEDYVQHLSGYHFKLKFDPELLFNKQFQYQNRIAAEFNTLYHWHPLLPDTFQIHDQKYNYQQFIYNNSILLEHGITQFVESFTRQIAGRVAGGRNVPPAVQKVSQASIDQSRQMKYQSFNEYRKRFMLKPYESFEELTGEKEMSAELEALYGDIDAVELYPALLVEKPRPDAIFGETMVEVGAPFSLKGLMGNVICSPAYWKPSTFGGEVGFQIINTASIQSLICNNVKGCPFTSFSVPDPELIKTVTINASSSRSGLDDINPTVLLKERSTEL
For `CS(=O)(=O)c1ccc(-c2[nH]c3ccc(Br)cc3c2-c2ccccc2)cc1`, the IC50 was 1.41 nM. For `CS(=O)(=O)c1ccc(-c2[nH]c3ccccc3c2-c2ccc(Cl)cc2)cc1`, the IC50 was 146 nM. `Cc1ccc(-c2c(-c3ccc(S(N)(=O)=O)cc3)[nH]c3ccccc23)cc1C` was tested, and the IC50 was 1.46 nM. In the case of `NS(=O)(=O)c1ccc(-c2[nH]c3ccc(Cl)cc3c2-c2ccccc2)cc1`, the IC50 is reported as 0.14 nM. With `NS(=O)(=O)c1ccc(-c2[nH]c3ccc(Cl)cc3c2-c2ccc(Cl)cc2)cc1` the IC50 was 0.54 nM. In the case of `COc1ccc(-c2c(-c3ccc(S(C)(=O)=O)cc3)[nH]c3ccccc23)cc1`, the IC50 is reported as 0.02 nM. `NS(=O)(=O)c1ccc(-c2[nH]c3ccccc3c2-c2ccccc2)cc1` gave an IC50 of 0.09 nM. With `Cc1ccc2[nH]c(-c3ccc(S(C)(=O)=O)cc3)c(-c3ccccc3)c2c1` the IC50 was 0.28 nM. `CS(=O)(=O)c1ccc(-c2[nH]c3ccccc3c2-c2ccc(Br)cc2)cc1` was tested, and the IC50 was 0.37 nM. `Cc1ccc(-c2c(-c3ccc(S(C)(=O)=O)cc3)[nH]c3ccccc23)cc1` gave an IC50 of 0.09 nM. In the case of `Cc1ccc2[nH]c(-c3ccc(S(N)(=O)=O)cc3)c(-c3ccccc3)c2c1`, the IC50 is reported as 0.02 nM. `NS(=O)(=O)c1ccc(-c2[nH]c3ccccc3c2-c2ccc(O)cc2)cc1` showed an IC50 of 6.44 nM. Compound `CS(=O)(=O)c1ccc(-c2[nH]c3ccccc3c2-c2ccccc2)cc1` has an IC50 of 0.6 nM.

Same assay, conditions: read-out: IC50
For `NS(=O)(=O)c1ccc(-c2[nH]c3ccc(F)cc3c2-c2ccccc2)cc1`, the IC50 was 2 nM. In the case of `Cc1ccc(-c2c(-c3ccc(S(C)(=O)=O)cc3)[nH]c3ccccc23)cc1C`, the IC50 is reported as 0.17 nM. `CC(=O)NS(=O)(=O)c1ccc(-c2[nH]c3ccccc3c2-c2ccccc2)cc1` showed an IC50 of 0.18 nM. With `CS(=O)(=O)c1ccc(-c2[nH]c3ccc(F)cc3c2-c2ccccc2)cc1` the IC50 was 5 nM. `NS(=O)(=O)c1ccc(-c2[nH]c3ccccc3c2-c2ccc(F)cc2)cc1` gave an IC50 of 5.15 nM. `NS(=O)(=O)c1ccc(-c2[nH]c3ccc(Br)cc3c2-c2ccccc2)cc1` was tested, and the IC50 was 5 nM. `CS(=O)(=O)c1ccc(-c2[nH]c3ccc(Cl)cc3c2-c2ccc(Cl)cc2)cc1` was tested, and the IC50 was 85.1 nM. `CS(=O)(=O)c1ccc(-c2[nH]c3ccc(Cl)cc3c2-c2cccc(Cl)c2)cc1` showed an IC50 of 0.8 nM. In the case of `NS(=O)(=O)c1ccc(-c2[nH]c3ccc(Cl)cc3c2-c2ccccc2Cl)cc1`, the IC50 is reported as 100 nM. `NS(=O)(=O)c1ccc(-c2[nH]c3ccccc3c2-c2ccc(Cl)cc2)cc1` was tested, and the IC50 was 33.5 nM. Work on `CS(=O)(=O)c1ccc(-c2[nH]c3ccc(Cl)cc3c2-c2ccccc2Cl)cc1` yielded an IC50 of 10 nM. `Cc1ccc(-c2c(-c3ccc(S(N)(=O)=O)cc3)[nH]c3ccccc23)cc1` was tested, and the IC50 was 0.07 nM. For `NS(=O)(=O)c1ccc(-c2[nH]c3ccc(Cl)cc3c2-c2cccc(Cl)c2)cc1`, the IC50 was 3.13 nM.

— ChEMBL document CHEMBL1156674, “Exploration of physicochemical properties and molecular modelling studies of 2-sulfonyl-phenyl-3-phenyl-indole analogs as cyclooxygenase-2 inhibitors” (Eur J Med Chem, 2008)
